Tested on: pentagastrin stimulated gastric acid secretion
Test: Rat Lumen Perfused Stomach (pentagastrin stimulated gastric acid secretion)
Assay type: in vivo
Conditions: i.v., 10 μmole/kg
Excerpt: B. Rat Lumen Perfused Stomach (pentagastrin stimulated gastric acid secretion).
Using a modification of the procedure described by Ghosh & Schild (Br. J. Pharmacology, 13, 54, 1958), the compounds of the following examples were found on i.v. administration at a concentration of 10 μmole/kg to cause an inhibition of pentagastrin stimulated gastric acid secretion a follows: […]

Row | Structure (SMILES) | % inhibition of pentagastrin stimulated gastric acid secretion [%]
1 | CCCC(=O)c1cnc2c(C(=O)OC)cccc2c1Nc1ccccc1C [Example 1, methyl 3-butyryl-4-(2-methylphenylamino)quinoline-8-carboxylate] | 42
2 | CCCC(=O)c1cnc2c(C(N)=O)cccc2c1Nc1ccccc1C [Example 2, 3-butyryl-4-(2-methylphenylamino)quinoline-8-carboxamide] | 39
